# Source: patent US20230093099A1, “COMPOUNDS AND METHODS OF TREATING CANCERS” (CULLGEN (SHANGHAI), INC., priority 2019, published 2023)
# System: RS4;11 cells
# Experiment: Cell viability assay (CellTiter-Glo) in RS4;11 cells
# Assay type: cell-based
# Settings: Homo sapiens, 72 h; RS4;11 cells; cell viability, 3 days, CellTiter-Glo; read-out: IC50
# In short: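 Three-day compound treatment of RS4;11 ALL cells (5000/well, 3-fold dilution series of 8 or 12 points), with IC50 from a nonlinear least-squares fit to CellTiter-Glo viability data.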
row,IC50,SMILES
1,> 10 µM,"Cc1ncsc1-c1ccc(CNC(=O)[C@@H]2C[C@@H](O)CN2C(=O)[C@@H](NC(=O)CCCCCC(=O)N2CCC(n3cc(-c4cnc5cccc(-c6cc(F)c(CN7CCOCC7)c(F)c6)c5n4)cn3)CC2)C(C)(C)C)cc1 [JA-048, (2S,4R)-1-[(2S)-2-[[7-[4-[4-[8-[3,5-Difluoro-4-(morpholinomethyl)phenyl]quinoxalin-2-yl]pyrazol-1-yl]-1-piperidyl]-7-oxo-heptanoyl]amino]-3,3-dimethyl-butanoyl]-4-hydroxy-N-[[4-(4-methylthiazol-5-yl)phenyl]methyl]pyrrolidine-2-carboxamide]"
2,2.01 µM,"Cc1cnc(Nc2ccc(N3CCN(C(=O)CCCCNc4ccc5c(c4)C(=O)N(C4CCC(=O)NC4=O)C5=O)CC3)cc2)nc1Nc1cccc(S(=O)(=O)NC(C)(C)C)c1 (stereo not shown) [JA-228, N-(tert-butyl)-3-((2-((4-(4-(5-((2-(2,6-dioxopiperidin-3-yl)-1,3-dioxoisoindolin-5-yl)amino)pentanoyl)piperazin-1-yl)phenyl)amino)-5-methylpyrimidin-4-yl)amino)benzenesulfonamide]"
3,> 10 µM,"Cc1ncsc1-c1ccc(CNC(=O)[C@@H]2C[C@@H](O)CN2C(=O)[C@@H](NC(=O)CCCNC(=O)CN2CCN(c3ccc(Nc4nc5cccc(-c6ccc(S(C)(=O)=O)cc6)n5n4)cc3)CC2)C(C)(C)C)cc1 [JA-125, (2S,4R)-1-((S)-3,3-Dimethyl-2-(4-(2-(4-(4-((5-(4-(methylsulfonyl)phenyl)-[1,2,4]triazolo[1,5-a]pyridin-2-yl)amino)phenyl)piperazin-1-yl)acetamido)butanamido)butanoyl)-4-hydroxy-N-(4-(4-methylthiazol-5-yl)benzyl)pyrrolidine-2-carboxamide]"
4,> 10 µM,"O=C1CCC(N2C(=O)c3ccc(NCCOCCOCCOCCOCCOCCC(=O)N4CCC(n5cc(-c6cnc7cccc(-c8cc(F)c(CN9CCOCC9)c(F)c8)c7n6)cn5)CC4)cc3C2=O)C(=O)N1 (stereo not shown) [JA-186, 5-((18-(4-(4-(8-(3,5-Difluoro-4-(morpholinomethyl)phenyl)quinoxalin-2-yl)-1H-pyrazol-1-yl)piperidin-1-yl)-18-oxo-3,6,9,12,15-pentaoxaoctadecyl)amino)-2-(2,6-dioxopiperidin-3-yl)isoindoline-1,3-dione]"
5,> 10 µM,"Cc1ncsc1-c1ccc(CNC(=O)[C@@H]2C[C@@H](O)CN2C(=O)[C@@H](NC(=O)CCCCCC(=O)N2CCN(c3ccc(Nc4nc5cccc(-c6ccc(S(C)(=O)=O)cc6)n5n4)cc3)CC2)C(C)(C)C)cc1 [JA-076, (2S,4R)-1-((S)-3,3-Dimethyl-2-(7-(4-(4-((5-(4-(methylsulfonyl)phenyl)-[1,2,4]triazolo[1,5-a]pyridin-2-yl)amino)phenyl)piperazin-1-yl)-7-oxoheptanamido)butanoyl)-4-hydroxy-N-(4-(4-methylthiazol-5-yl)benzyl)pyrrolidine-2-carboxamide]"
6,> 10 µM,"O=C(CN1CCC(n2cc(-c3cnc4cccc(-c5cc(F)c(CN6CCOCC6)c(F)c5)c4n3)cn2)CC1)NCCCCCCCCNc1cccc2c1C(=O)N(C1CCC(=O)NC1=O)C2=O (stereo not shown) [JA-149, 2-(4-(4-(8-(3,5-Difluoro-4-(morpholinomethyl)phenyl)quinoxalin-2-yl)-1H-pyrazol-1-yl)piperidin-1-yl)-N-(8-((2-(2,6-dioxopiperidin-3-yl)-1,3-dioxoisoindolin-4-yl)amino)octyl)acetamide]"
7,> 0.5 µM,"Cn1c(=O)n(C2CCC(=O)NC2=O)c2ccc(NCCCCC(=O)N3CCN(c4ccc(Nc5nc6cccc(-c7ccc(S(C)(=O)=O)cc7)n6n5)cc4)CC3)cc21 (stereo not shown) [JA-291, 3-(3-Methyl-5-((5-(4-(4-((5-(4-(methylsulfonyl)phenyl)-[1,2,4]triazolo[1,5-a]pyridin-2-yl)amino)phenyl)piperazin-1-yl)-5-oxopentyl)amino)-2-oxo-2,3-dihydro-1H-benzo[d]imidazol-1-yl)piperidine-2,6-dione]"
8,3.17 µM,"O=C1CCC(N2C(=O)c3cccc(NCCCCCC(=O)N4CCC(n5cc(-c6cnc7cccc(-c8cc(F)c(CN9CCOCC9)c(F)c8)c7n6)cn5)CC4)c3C2=O)C(=O)N1 (stereo not shown) [JA-001, 4-[[6-[4-[4-[8-[3,5-Difluoro-4-(morpholinomethyl)phenyl]quinoxalin-2-yl]pyrazol-1-yl]-1-piperidyl]-6-oxo-hexyl]amino]-2-(2,6-dioxo-3-piperidyl)isoindoline-1,3-dione]"
9,> 10 µM,"Cc1cnc(Nc2ccc(N3CCN(CC(=O)NCCOCCOCCOCC(=O)N[C@H](C(=O)N4C[C@H](O)C[C@H]4C(=O)NCc4ccc(-c5scnc5C)cc4)C(C)(C)C)CC3)cc2)nc1Nc1cccc(S(=O)(=O)NC(C)(C)C)c1 [JA-220, (2S,4R)-1-((S)-2-(tert-butyl)-17-(4-(4-((4-((3-(N-(tert-butyl)sulfamoyl)phenyl)amino)-5-methylpyrimidin-2-yl)amino)phenyl)piperazin-1-yl)-4,16-dioxo-6,9,12-trioxa-3,15-diazaheptadecanoyl)-4-hydroxy-N-(4-(4-methylthiazol-5-yl)benzyl)pyrrolidine-2-carboxamide]"
10,> 10 µM,"O=C(CN1CCC(n2cc(-c3cnc4cccc(-c5cc(F)c(CN6CCOCC6)c(F)c5)c4n3)cn2)CC1)NCCOCCOCCOCCOCCOCCNc1cccc2c1C(=O)N(C1CCC(=O)NC1=O)C2=O (stereo not shown) [JA-143, 2-[4-[4-[8-[3,5-Difluoro-4-(morpholinomethyl)phenyl]quinoxalin-2-yl]pyrazol-1-yl]-1-piperidyl]-N-[2-[2-[2-[2-[2-[2-[[2-(2,6-dioxo-3-piperidyl)-1,3-dioxo-isoindolin-4-yl]amino]ethoxy]ethoxy]ethoxy]ethoxy]ethoxy]ethyl]acetamide]"
11,> 10 µM,"Cc1ncsc1-c1ccc(CNC(=O)[C@@H]2C[C@@H](O)CN2C(=O)[C@@H](NC(=O)CCOCCOCCOCCOCCOCCC(=O)N2CCC(n3cc(-c4cnc5cccc(-c6cc(F)c(CN7CCOCC7)c(F)c6)c5n4)cn3)CC2)C(C)(C)C)cc1 [JA-044, (2S,4R)-1-[(2S)-2-[3-[2-[2-[2-[2-[3-[4-[4-[8-[3,5-Difluoro-4-(morpholinomethyl)phenyl]quinoxalin-2-yl]pyrazol-1-yl]-1-piperidyl]-3-oxo-propoxy]ethoxy]ethoxy]ethoxy]ethoxy]propanoylamino]-3,3-dimethyl-butanoyl]-4-hydroxy-N-[[4-(4-methylthiazol-5-yl)phenyl]methyl]pyrrolidine-2-carboxamide]"
12,3.34 µM,"CS(=O)(=O)c1ccc(-c2cccc3nc(Nc4ccc(N5CCN(C(=O)CNc6cccc7c6C(=O)N(C6CCC(=O)NC6=O)C7=O)CC5)cc4)nn23)cc1 (stereo not shown) [JA-014, 2-(2,6-Dioxo-piperidin-3-yl)-4-[2-(4-{4-[5-(4-methanesulfonyl-phenyl)-[1,2,4]triazolo[1,5-a]pyridin-2-ylamino]-phenyl}-piperazin-1-yl)-2-oxo-ethylamino]-isoindole-1,3-dione]"
13,> 10 µM,"CS(=O)(=O)c1ccc(-c2cccc3nc(Nc4ccc(N5CCN(C(=O)CCCCCCNc6cccc7c6C(=O)N(C6CCC(=O)NC6=O)C7=O)CC5)cc4)nn23)cc1 (stereo not shown) [JA-078, 2-(2,6-Dioxo-piperidin-3-yl)-4-[7-(4-{4-[5-(4-methanesulfonyl-phenyl)-[1,2,4]triazolo[1,5-a]pyridin-2-ylamino]-phenyl}-piperazin-1-yl)-7-oxo-heptylamino]-isoindole-1,3-dione]"
